Results from ChEMBL document CHEMBL1201862, “PubChem BioAssay data set” (2004).
Values belong to the compound of their own block, whether it stands above or below them. Calls of active or inactive are those of the source. Non-standard residues stand in square brackets, D forms with d. Residues, ends and D or L forms follow the SMILES beside them. ξ: configuration not given here. *: point of attachment. Trx = NC[C@H]1CC[C@H](C(=O)O)CC1; Tic = O=C(O)[C@@H]1Cc2ccccc2CN1; Ile(3ξ) = CCC(C)[C@H](N)C(=O)O; Boc = CC(C)(C)OC(=O)*

What was measured:
[1] = HepG2 cell cytotoxicity, dose response, cytotoxicity control for Shn3 inhibitor project, CellTiter-Glo, cherry-picked (AID 624134); type: functional, cell-based
[2] = control 3'UTR Renilla luciferase suppression, dose response, counter-screen for Shn3 inhibitor project, cell-based, Clone20-Shn3RL, cherry-picked (AID 624133); type: functional
[3] = Shn3 3'UTR reporter inhibitors, dose response, cell-based, Clone20 osteoblasts, firefly luciferase, cherry-picked (AID 624132); type: functional;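 also: firefly luciferase luminescence from reporter carrying the Shn3 3'UTR in osteoblasts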
[4] = target: T1, Carboxy-terminal domain RNA polymerase II polypeptide A small phosphatase 1 (Homo sapiens, UniProt Q9GZU7); assay: inhibitors of CTDSP1, concentration-response testing, biochemical assay, absorbance-based, actives from ultra-high-throughput screening (AID 540297); type: functional
T1 sequence (Q9GZU7 whole entry): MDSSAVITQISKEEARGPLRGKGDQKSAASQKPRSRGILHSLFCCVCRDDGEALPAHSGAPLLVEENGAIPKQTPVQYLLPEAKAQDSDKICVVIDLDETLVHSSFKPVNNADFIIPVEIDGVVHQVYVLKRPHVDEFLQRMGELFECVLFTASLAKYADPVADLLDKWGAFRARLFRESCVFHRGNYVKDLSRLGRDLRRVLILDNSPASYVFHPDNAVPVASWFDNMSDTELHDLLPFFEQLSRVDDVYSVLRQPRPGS

[5] = target: T2, Corticotropin-releasing factor receptor 2/Corticotropin-releasing factor-binding protein (Homo sapiens, UniProt P24387+Q13324); assay: Dose Response confirmation of uHTS hits for small molecule antagonists of the CRF-binding protein and CRF-R2 receptor complex.; type: functional; details: read-out: IC50_Mean
T2 sequence (Q13324 whole entry): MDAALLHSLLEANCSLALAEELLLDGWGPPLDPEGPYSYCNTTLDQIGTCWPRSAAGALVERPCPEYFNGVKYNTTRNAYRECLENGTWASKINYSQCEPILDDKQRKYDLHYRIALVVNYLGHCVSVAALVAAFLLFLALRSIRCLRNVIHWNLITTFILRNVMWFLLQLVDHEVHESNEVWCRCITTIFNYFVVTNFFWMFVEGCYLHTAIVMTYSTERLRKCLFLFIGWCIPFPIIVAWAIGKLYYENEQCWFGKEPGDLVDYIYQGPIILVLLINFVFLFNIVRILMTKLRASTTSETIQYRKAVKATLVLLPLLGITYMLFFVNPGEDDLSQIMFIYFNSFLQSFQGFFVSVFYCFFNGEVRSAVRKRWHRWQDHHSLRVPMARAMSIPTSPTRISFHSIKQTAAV
T2 sequence (P24387 whole entry): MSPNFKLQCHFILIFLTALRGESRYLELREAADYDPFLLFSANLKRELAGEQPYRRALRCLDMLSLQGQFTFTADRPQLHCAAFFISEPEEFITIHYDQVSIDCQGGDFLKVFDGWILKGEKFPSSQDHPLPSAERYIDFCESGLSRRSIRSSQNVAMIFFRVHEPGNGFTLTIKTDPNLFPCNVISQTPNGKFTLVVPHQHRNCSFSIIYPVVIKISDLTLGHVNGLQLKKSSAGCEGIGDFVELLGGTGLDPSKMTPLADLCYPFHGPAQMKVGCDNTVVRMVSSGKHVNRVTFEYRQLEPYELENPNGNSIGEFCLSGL

[6] = target: T2, Corticotropin-releasing factor receptor 2/Corticotropin-releasing factor-binding protein; assay: activators of CRF receptor 2 with binding protein – uHTS hits, confirmation (AID 602473); type: functional; details: read-out: EC50_Mean
[7] = miR-122 activators in hepatoma reporter cells, dose response, cell-based, Huh7 psiCHECK-miR122, Renilla luciferase, cherry-picked (AID 651956); type: functional;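 also: huh7 hepatoma cells stably carrying a psiCHECK-2 miR-122 sensor plasmid; renilla luciferase signal reporting endogenous miR-122 activity after 48 h compound exposure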
[8] = target: T3, DNA repair protein RAD52 homolog (Homo sapiens, UniProt P43351); type: functional, biochemical
T3 sequence (P43351 whole entry): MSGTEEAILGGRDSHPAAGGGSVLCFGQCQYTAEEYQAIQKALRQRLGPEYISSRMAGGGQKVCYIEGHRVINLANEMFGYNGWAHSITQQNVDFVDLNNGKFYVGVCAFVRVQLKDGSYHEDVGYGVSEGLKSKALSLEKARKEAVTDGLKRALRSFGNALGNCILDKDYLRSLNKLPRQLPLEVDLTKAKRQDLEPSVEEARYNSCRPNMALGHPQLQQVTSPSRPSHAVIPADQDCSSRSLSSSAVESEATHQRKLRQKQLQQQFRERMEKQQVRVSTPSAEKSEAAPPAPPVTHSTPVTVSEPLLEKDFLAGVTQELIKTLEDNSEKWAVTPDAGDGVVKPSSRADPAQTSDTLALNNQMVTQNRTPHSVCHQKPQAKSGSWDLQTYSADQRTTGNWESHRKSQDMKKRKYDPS

[9] = growth suppression of beta-catenin-knockout colon cells, dose response, cell-based, HCT116, human colon tumor (AID 1045); type: functional;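 also: HCT116 colon tumor cells with beta catenin knocked out; cells exposed to compound for 60 hours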
[10] = growth suppression of PTEN-null colon cells, dose response, cell-based, HCT116 PTEN knockout (AID 1047); type: functional;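 also: HCT116 colon tumor cells with PTEN knocked out; cells exposed to compound for 60 hours before readout; potency for loss of cell viability measured by luminescence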
[11] = target: T4, High affinity choline transporter 1 (Homo sapiens, UniProt Q9GZV3); assay: CHT inhibitors, dose response, cell-based, 5-point CRC, membrane potential dye (AID 504840); type: functional
T4 sequence (Q9GZV3 whole entry): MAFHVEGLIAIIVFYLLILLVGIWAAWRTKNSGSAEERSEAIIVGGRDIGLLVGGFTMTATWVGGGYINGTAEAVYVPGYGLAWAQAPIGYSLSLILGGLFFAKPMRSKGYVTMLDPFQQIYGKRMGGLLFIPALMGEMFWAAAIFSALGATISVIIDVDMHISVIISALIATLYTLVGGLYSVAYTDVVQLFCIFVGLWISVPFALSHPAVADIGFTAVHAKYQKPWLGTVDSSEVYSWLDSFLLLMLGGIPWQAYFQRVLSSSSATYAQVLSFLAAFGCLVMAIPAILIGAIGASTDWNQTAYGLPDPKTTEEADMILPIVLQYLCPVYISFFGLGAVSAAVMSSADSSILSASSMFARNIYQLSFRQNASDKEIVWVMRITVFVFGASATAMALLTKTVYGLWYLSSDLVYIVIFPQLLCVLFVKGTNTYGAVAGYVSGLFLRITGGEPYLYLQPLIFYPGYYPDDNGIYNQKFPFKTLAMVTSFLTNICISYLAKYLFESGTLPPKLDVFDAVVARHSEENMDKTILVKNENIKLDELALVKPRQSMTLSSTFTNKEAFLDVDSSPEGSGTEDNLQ

Structure (SMILES): CC(C)C[C@@H](CN1CCCC1CN1C(=S)NC[C@@H]1Cc1ccc(O)cc1)N1C[C@H](Cc2ccc(O)cc2)N(CC2CCCCCC2)C1=S (stereo partly drawn)
- AC50 [1]: 22.7 µM (active)
- AC50 [2]: 16.9 µM (active)
- AC50 [3]: 18.8 µM (active)

Structure (SMILES): O=C(NNC(=O)C1CCN(S(=O)(=O)c2ccc(Cl)cc2)CC1)c1ccccc1O
- AC50 [1]: 63.1 µM (active)
- AC50 [2]: 6.86 µM (active)
- AC50 [3]: 18.5 µM (active)

Structure (SMILES): C[C@@H]1CN([C@H](C)CO)S(=O)(=O)c2ccc(C3=CCCCC3)cc2O[C@@H]1CN(C)C(=O)Cc1ccncc1
- AC50 [7]: 8.26 µM (active)

Structure (SMILES): Cc1ccc(-c2ccc3c(c2)O[C@H](CN(C)C(=O)CC2CC2)[C@H](C)CN([C@H](C)CO)S3(=O)=O)cc1
- AC50 [7]: 10.7 µM (active)

Structure (SMILES): COc1cccc(-c2ccc3c(c2)O[C@H](CN(C)C(=O)C2CCOCC2)[C@H](C)CN([C@@H](C)CO)S3(=O)=O)c1
- AC50 [7]: 6.42 µM (active)

Structure (SMILES): CN1C(=O)c2cc(NS(=O)(=O)c3ccc(Cl)cc3)ccc2OC[C@H]2O[C@H](CC(=O)N3CCc4ccccc4C3)CC[C@@H]21
- AC50 [7]: 14.8 µM (active)

Structure (SMILES): C[C@@H]1CN([C@@H](C)CO)C(=O)c2cc(NC(=O)Nc3cccc4ccccc34)ccc2O[C@@H](C)CCCCO[C@H]1CN(C)CC1CCCCC1
- AC50 [7]: 8.95 µM (active)

Structure (SMILES): Nc1ccc(CC(N)c2csc(Nc3ncccn3)n2)cc1 (stereo not drawn)
- AC50 [8]: 19.2 µM (active)

Structure (SMILES): O=C(N/N=C/c1ccccc1OC(=O)c1ccc2c(c1)OCO2)c1ccccc1
- EC50 [9]: 18.9 µM (active)
- EC50 [10]: 20.9 µM (active)

Structure (SMILES): CSc1ccc(/C=N/NC(=O)c2cccc(Cl)c2)cc1
- IC50 [4]: 13.4 µM (active)

Other lines, results leading:

- IC50 [4]: 4.66 µM (active)
Structure (SMILES): O=C(Nc1ccccc1C(F)(F)F)NC1(C(=O)N2CCOCC2)CCCCC1

- IC50 [4]: 7.59 µM (active)
Structure (SMILES): O=C(O)c1cccc2c1C(=O)N(c1ccc3c(c1)Cc1ccccc1-3)C2=O

- IC50 [5]: > 47.1 µM (inactive)
- EC50 [6]: > 53 µM (inactive)
Structure (SMILES): O=C(CC(CC(=O)c1ccccc1)c1ccncc1)c1ccccc1

- IC50 [5]: > 47.1 µM (inactive)
- EC50 [6]: > 53 µM (inactive)
Structure (SMILES): CCCCN(C(=O)c1ccc2c(c1)S(=O)(=O)N=C1CCCCCN12)c1c(N)n(CCCC)c(=O)[nH]c1=O

- IC50 [5]: > 47.1 µM (inactive)
- EC50 [6]: > 53 µM (inactive)
Structure (SMILES): CC(C)(C)NC(=O)C(c1ccc(O)cc1)N(Cc1ccc2c(c1)OCO2)C(=O)CCl (stereo not drawn)

- IC50 [4]: 1.85 µM (active)
Structure (SMILES): O=C(N/N=C/c1cc(Cl)cc([N+](=O)[O-])c1O)c1cc(-c2ccccn2)nc2ccccc12

- IC50 [11]: 15.1 µM (active)
Structure (SMILES): CC(C)COc1nc2ccccc2nc1N1CCN(C)CC1

- AC50 [8]: 11.3 µM (active)
Structure (SMILES): Cc1cc(N2CCC(N(C)C3CCCC3)CC2)nc2cc(O)ccc12

- IC50 [5]: > 47.1 µM (inactive)
- EC50 [6]: > 53 µM (inactive)
Structure (SMILES): CCC(C)[C@H](NC(=O)[C@@H]1Cc2ccccc2CN1C(=O)OC(C)(C)C)C(=O)NC[C@H]1CC[C@H](C(=O)O)CC1 (stereo partly drawn) (Boc-[Tic]-[Ile(3ξ)]-[Trx]-OH)
